Source: EPA's CvTdb concentration-time database

Experiments:
Assay in all cases: concentration in plasma after dosing
Rat [1] = details: iv, F344
Rat [2] = details: dosed: DL-Camphor, 6 mg/kg, iv, Male, F344
Rat [3] = details: 1 h; dosed: DL-Camphor; 6 mg/kg; iv; Female; F344
Rat [4] = details: dosed: DL-Camphor, 6 mg/kg, iv, Female, F344
Rat [5] = details: 1.5 h; dosed: DL-Camphor; 6 mg/kg; iv; Female; F344
Rat [6] = details: 1.5 h; dosed: DL-Camphor; 6 mg/kg; iv; Male; F344
Rat [7] = details: dosed: DL-Camphor, 6 mg/kg, iv, Male, F344; remark: listed apart in the source
Rat [8] = details: dosed: DL-Camphor, 6 mg/kg, iv, Female, F344; remark: listed apart in the source
Rat [9] = details: dosed: DL-Camphor, 6 mg/kg, iv, Male, F344; remark: listed apart in the source
Rat [10] = details: dosed: DL-Camphor, 6 mg/kg, iv, Male, F344; remark: listed apart in the source
Rat [11] = details: dosed: DL-Camphor, 6 mg/kg, iv, Female, F344; remark: listed apart in the source
Rat [12] = details: 6 h; dosed: DL-Camphor; 6 mg/kg; iv; Male; F344
Rat [13] = details: 1.5 h; dosed: DL-Camphor; 6 mg/kg; iv; Female; F344; remark: listed apart in the source
Rat [14] = details: dosed: DL-Camphor, 6 mg/kg, iv, Male, F344; remark: listed apart in the source
Rat [15] = details: dosed: DL-Camphor, 6 mg/kg, iv, Female, F344; remark: listed apart in the source
Rat [16] = details: dosed: DL-Camphor, 6 mg/kg, iv, Male, F344; remark: listed apart in the source
Rat [17] = details: dosed: DL-Camphor, 6 mg/kg, iv, Female, F344; remark: listed apart in the source
Rat [18] = details: dosed: DL-Camphor, 6 mg/kg, iv, Male, F344; remark: listed apart in the source
Rat [19] = details: dosed: DL-Camphor, 6 mg/kg, iv, Female, F344; remark: listed apart in the source
Rat [20] = details: dosed: DL-Camphor, 6 mg/kg, iv, Female, F344; remark: listed apart in the source
Rat [21] = details: 1 h; dosed: DL-Camphor; 6 mg/kg; iv; Female; F344; remark: listed apart in the source
Rat [22] = details: dosed: DL-Camphor, 6 mg/kg, iv, Male, F344; remark: listed apart in the source
Rat [23] = details: dosed: DL-Camphor, 6 mg/kg, iv, Male, F344; remark: listed apart in the source
Rat [24] = details: dosed: DL-Camphor, 6 mg/kg, iv, Female, F344; remark: listed apart in the source
Rat [25] = details: dosed: DL-Camphor, 6 mg/kg, iv, Male, F344; remark: listed apart in the source
Rat [26] = details: dosed: Bromodichloromethane, 10 mg/kg, iv, Female, F344
Rat [27] = details: dosed: Bromodichloromethane, 10 mg/kg, iv, Female, F344; remark: listed apart in the source
Rat [28] = details: 4 h; dosed: Bromodichloromethane; 10 mg/kg; iv; Male; F344
Rat [29] = details: 1 h; dosed: Bromodichloromethane; 10 mg/kg; iv; Female; F344
Rat [30] = details: 1 h; dosed: Bromodichloromethane; 10 mg/kg; iv; Male; F344
Rat [31] = details: dosed: Bromodichloromethane, 10 mg/kg, iv, Female, F344; remark: listed apart in the source
Rat [32] = details: dosed: Bromodichloromethane, 10 mg/kg, iv, Female, F344; remark: listed apart in the source
Rat [33] = details: dosed: Bromodichloromethane, 10 mg/kg, iv, Female, F344; remark: listed apart in the source
Rat [34] = details: dosed: Bromodichloromethane, 10 mg/kg, iv, Male, F344
Rat [35] = details: dosed: Bromodichloromethane, 10 mg/kg, iv, Female, F344; remark: listed apart in the source
Rat [36] = details: 1 h; dosed: Bromodichloromethane; 10 mg/kg; iv; Male; F344; remark: listed apart in the source
Rat [37] = details: 1 h; dosed: Bromodichloromethane; 10 mg/kg; iv; Female; F344; remark: listed apart in the source
Rat [38] = details: dosed: Bromodichloromethane, 10 mg/kg, iv, Male, F344; remark: listed apart in the source
Rat [39] = details: dosed: Bromodichloromethane, 10 mg/kg, iv, Male, F344; remark: listed apart in the source
Rat [40] = details: dosed: Bromodichloromethane, 10 mg/kg, iv, Female, F344; remark: listed apart in the source
Rat [41] = details: 10 min; dosed: Bromodichloromethane; 10 mg/kg; iv; Female; F344
Rat [42] = details: dosed: Bromodichloromethane, 10 mg/kg, iv, Male, F344; remark: listed apart in the source
Rat [43] = details: 10 min; dosed: Bromodichloromethane; 10 mg/kg; iv; Male; F344
Rat [44] = details: dosed: Bromodichloromethane, 10 mg/kg, iv, Female, F344; remark: listed apart in the source
Rat [45] = details: dosed: Bromodichloromethane, 10 mg/kg, iv, Male, F344; remark: listed apart in the source
Rat [46] = details: dosed: Bromodichloromethane, 10 mg/kg, iv, Female, F344; remark: listed apart in the source
Rat [47] = details: dosed: Bromodichloromethane, 10 mg/kg, iv, Male, F344; remark: listed apart in the source
Rat [48] = details: dosed: Bromodichloromethane, 10 mg/kg, iv, Female, F344; remark: listed apart in the source
Rat [49] = details: 10 min; dosed: Bromodichloromethane; 10 mg/kg; iv; Male; F344; remark: listed apart in the source
Rat [50] = details: dosed: Bromodichloromethane, 10 mg/kg, iv, Male, F344; remark: listed apart in the source

CC12CCC(CC1=O)C2(C)C (racemic) [DL-Camphor]
concentration in plasma [ng/mL], Rat [1], dosed: DL-Camphor, 6 mg/kg
Details	Female	Male
0.25 h	1250	1350
0.5 h	731	839
0.75 h	527	617
1 h	96	326
1.5 h	332	196
2 h	221	186
4 h	65.9	138
5 min	3000	4140
6 h	222	76.7
8 h	–	31
10 h	10.3	27.3

Details	concentration in plasma [ng/mL]
Rat [2], 2 h	205
Rat [2], 5 min	3700
Rat [4], 0.75 h	526
Rat [4], 8 h	98.3
Rat [7], 0.5 h	258
Rat [7], 4 h	135
Rat [8], 2 h	191
Rat [8], 5 min	3070
Rat [9], 0.75 h	545
Rat [9], 8 h	49.1
Rat [10], 2 h	205
Rat [10], 5 min	4050
Rat [11], 0.5 h	612
Rat [11], 4 h	61.7
Rat [14], 0.5 h	648
Rat [14], 4 h	127
Rat [15], 0.25 h	132
Rat [15], 6 h	70.2
Rat [16], 0.25 h	1710
Rat [16], 6 h	88.1
Rat [17], 0.75 h	114
Rat [17], 8 h	46.7
Rat [18], 0.75 h	577
Rat [18], 8 h	31.3
Rat [19], 2 h	152
Rat [19], 5 min	2850
Rat [20], 0.25 h	1520
Rat [20], 6 h	18.3
Rat [22], 1 h	411
Rat [22], 10 h	35
Rat [23], 1 h	257
Rat [23], 10 h	77.4
Rat [24], 0.5 h	848
Rat [24], 4 h	62.7
Rat [25], 0.25 h	1680
Rat [25], 1.5 h	197

Details	concentration in plasma [ng/mL]
Rat [3]	391
Rat [5]	121
Rat [6]	228
Rat [12]	87
Rat [13]	240
Rat [21]	411

ClC(Cl)Br [Bromodichloromethane]
Details	concentration in plasma [ng/mL]
Rat [26], 2 min	1680
Rat [26], 6 h	11.9
Rat [27], 0.25 h	341
Rat [27], 8 h	10.7
Rat [31], 2 h	18.4
Rat [31], 10 min	926
Rat [32], 4 h	9.88
Rat [32], 5 min	2300
Rat [33], 2 min	2280
Rat [33], 6 h	8.65
Rat [34], 4 h	21.8
Rat [34], 5 min	2570
Rat [35], 0.5 h	307
Rat [35], 2 h	40.2
Rat [38], 0.25 h	535
Rat [38], 8 h	6.97
Rat [39], 0.5 h	402
Rat [39], 2 h	42.5
Rat [40], 0.5 h	203
Rat [40], 4 h	13.8
Rat [42], 2 min	2880
Rat [42], 6 h	16.1
Rat [44], 0.25 h	44.5
Rat [44], 8 h	6.93
Rat [45], 2 h	56.3
Rat [45], 5 min	2210
Rat [46], 0.5 h	67.9
Rat [46], 2 h	87.6
Rat [47], 2 min	3310
Rat [47], 6 h	26.3
Rat [48], 0.25 h	618
Rat [48], 8 h	3.69
Rat [50], 0.25 h	1340
Rat [50], 8 h	3.44

concentration in plasma [ng/mL], Rat [1], dosed: Bromodichloromethane, 10 mg/kg
Details	Female	Male
0.25 h	70.4	1070
0.5 h	312	220
1 h	62.1	105
2 h	63.4	60.8
2 min	2590	2820
4 h	7.81	15.7
5 min	1170	1100
6 h	7.86	31.4
8 h	6.28	4.65
10 min	589	1070
12 h	–	3.96

Details	concentration in plasma [ng/mL]
Rat [28]	11.1
Rat [29]	68
Rat [30]	186
Rat [36]	151
Rat [37]	92.4
Rat [41]	779
Rat [43]	1310
Rat [49]	1640
